Assay results reported in ChEMBL document CHEMBL5523764, “Discovery of NO Donor-Aurovertin Hybrids as Dual Ferroptosis and Apoptosis Inducers for Treating Triple Negative Breast Cancer” (J Med Chem, 2024).
Active and inactive are the calls of the source. The calls are words filed in the database; no cut-off is given here.

Columns and labels:
MDA-MB-231 [1] = assay: Inhibition of Bcl2 expression in human MDA-MB-231 cells at 0.25 to 1 uM by Western blot analysis; type: functional, cell-based; details: dose 0.25-1 µM
[2] = Toxicity in nude mouse xenografted with human MDA-MB-231 cells assessed as effect on body weight at 10 to 20 mg/kg, ip administered for 30 days; type: organism-based; details: in vivo, 720 h, dose 10-20 mg/kg, time 30 day
MDA-MB-231 [3] = assay: Induction of ferroptosis in human MDA-MB-231 cells assessed as decrease in GPX4 expression by Western blot analysis; type: functional, cell-based; details: dose 0.25-1 µM
MDA-MB-231 [4] = assay: Induction of apoptosis in human MDA-MB-231 cells assessed as early apoptotic cells at 1 uM by Annexin V-FITC staining based flow cytometric analysis (reference value: 0.17 %); type: functional
MDA-MB-231 [5] = assay: Induction of apoptosis in human MDA-MB-231 cells assessed as upregulation of PARP-1 expression at 0.25 to 1 uM by Western blot analysis; type: functional, cell-based; details: dose 0.25-1 µM
MDA-MB-231 [6] = assay: Upregulation of Bid expression in human MDA-MB-231 cells at 0.25 to 1 uM by Western blot analysis; type: functional, cell-based; details: dose 0.25-1 µM
MDA-MB-231 [7] = assay: Induction of apoptosis in human MDA-MB-231 cells assessed as late apoptotic cells at 1 uM by Annexin V-FITC staining based flow cytometric analysis (reference value: 0.02 %); type: functional
4T1 [8] = assay: Antimigratory activity in mouse 4T1 cells assessed as inhibition of cell migration at 0.02 to 0.5 uM incubated for 24 hrs by scratch assay; type: functional, cell-based; details: dose 0.02-0.5 µM
4T1 [9] = assay: Antiinvasive activity against mouse 4T1 cells assessed as inhibition of cell invasion at 0.5 uM measured after 24 hrs by crystal violet staining based transwell invasion assay relative to control; type: functional
MDA-MB-231 [10] = assay: Downregulation of caspase-8 expression in human MDA-MB-231 cells at 0.25 to 1 uM by Western blot analysis; type: functional, cell-based; details: dose 0.25-1 µM
MDA-MB-231 [11] = assay: Antiinvasive activity against human MDA-MB-231 cells assessed as inhibition of cell invasion at 0.5 uM measured after 24 hrs by crystal violet staining based transwell invasion assay relative to control; type: functional
[12] = Drug metabolism in nude mouse xenografted with human MDA-MB-231 cells assessed as metabolite formation at 10 to 20 mg/kg, ip administered for 30 days by LC-MS/MS analysis; type: ADME, organism-based; details: in vivo, 720 h, dose 10-20 mg/kg, time 30 day
MDA-MB-231 [13] = assay: Induction of apoptosis in human MDA-MB-231 cells assessed as early apoptotic cells at 0.25 uM by Annexin V-FITC staining based flow cytometric analysis (reference value: 0.17 %); type: functional
MDA-MB-231 [14] = assay: Induction of apoptosis in human MDA-MB-231 cells assessed as necrotic cells at 0.25 uM by Annexin V-FITC staining based flow cytometric analysis (reference value: 7.98 %); type: functional
MDA-MB-231 [15] = assay: Induction of ferroptosis in human MDA-MB-231 cells xenografted in nude mouse assessed as reduction in GPX4 level at 10 to 20 mg/kg, ip administered for 30 days by immunohistochemistry analysis; type: functional, organism-based; details: dose 10-20 mg/kg, time 30.0 day
4T1 [16] = assay: Inhibition of cell adhesion in mouse 4T1 cells assessed as rounded form appearance of cells at 0.02 to 0.5 uM incubated for 24 hrs by microscopic analysis; type: functional, cell-based; details: dose 0.02-0.5 µM
MDA-MB-231 [17] = assay: Induction of ferroptosis in human MDA-MB-231 cells assessed as decrease in GSH/GSSG ratio incubated for 24 hrs by GSH colorimetric assay; type: functional, cell-based; details: dose 0.25-1 µM
MDA-MB-231 [18] = assay: Antitumor activity against human MDA-MB-231 cells xenografted in nude mouse assessed as reduction in tumor weight at 10 mg/kg, ip administered for 30 days relative to control; type: functional; set-up: scale not given: the % may be the effect or the level left; details: time 30 day
MDA-MB-231 [19] = assay: Induction of apoptosis in human MDA-MB-231 cells assessed as viable cells at 0.5 uM by Annexin V-FITC staining based flow cytometric analysis (reference value: 91.03%); type: functional; details: read-out: Activity
HCC1937 = assay: Antiproliferative activity against human HCC1937 cells assessed as reduction in cell viability incubated for 72 hrs by MTT assay; type: functional, cell-based; details: HCC1937, 72 h
MDA-MB-231 [20] = assay: Antiinvasive activity against human MDA-MB-231 cells assessed as reduction in cell invasion measured after 24 hrs by crystal violet staining based transwell invasion assay; type: functional; details: dose 0.02-0.5 µM
MDA-MB-231 [21] = assay: Induction of lipid ROS accumulation in human MDA-MB-231 cells incubated for 24 hrs by BODIPY-C11 probe based flow cytometric analysis; type: functional, cell-based; details: dose 0.25-1 µM
MDA-MB-231 [22] = assay: Antitumor activity against human MDA-MB-231 cells xenografted in nude mouse assessed as reduction in tumor weight at 20 mg/kg, ip administered for 30 days relative to control; type: functional; set-up: scale not given: the % may be the effect or the level left; details: time 30 day
MDA-MB-231 [23] = assay: Induction of NO release in human MDA-MB-231 cells assessed NO concentration by Griess reagent based assay; type: functional
4T1 [24] = assay: Upregulation of DUSP1 protein expression in mouse 4T1 cells incubated for 24 hrs by Western blot analysis; type: functional, cell-based; details: dose 0.02-2.5 µM
MDA-MB-231 [25] = assay: Induction of lipid ROS accumulation in human MDA-MB-231 cells incubated for 24 hrs in presence of Fer-1 by BODIPY-C11 probe based flow cytometric analysis; type: functional, cell-based
MDA-MB-231 [26] = assay: Induction of apoptosis in human MDA-MB-231 cells assessed as viable cells at 1 uM by Annexin V-FITC staining based flow cytometric analysis (reference value: 91.03%); type: functional; details: read-out: Activity
MDA-MB-231 [27] = assay: Induction of apoptosis in human MDA-MB-231 cells assessed as upregulation of caspase-9 expression at 0.25 to 1 uM by Western blot analysis; type: functional, cell-based; details: dose 0.25-1 µM
MDA-MB-231 [28] = assay: Induction of apoptosis in human MDA-MB-231 cells assessed as early apoptotic cells at 0.5 uM by Annexin V-FITC staining based flow cytometric analysis (reference value: 0.17 %); type: functional
[29] = Selectivity index, ratio of IC50 for cytotoxicity against human MCF-10A cells to IC50 for antiproliferative activity against human MDA-MB-231 cells; type: toxicity, cell-based; details: MCF-10A cells versus MDA-MB-231 cells, read-out: Ratio IC50
MDA-MB-231 [30] = assay: Induction of ferroptosis in human MDA-MB-231 cells assessed as decrease in FTH1 expression in presence of Fer-1 by Western blot analysis; type: functional, cell-based
[31] = Cytotoxicity against human MCF-10A cells assessed as reduction in cell viability incubated for 72 hrs by MTT assay; type: toxicity, cell-based
4T1 [32] = assay: Antiinvasive activity against mouse 4T1 cells assessed as reduction in cell invasion measured after 24 hrs by crystal violet staining based transwell invasion assay; type: functional; details: dose 0.02-0.5 µM
4T1 [33] = assay: Antimetastatic activity in mouse 4T1 cells implanted in female BALB/c mouse assessed as reduction in number of metastatic nodules in lungs at 10 mg/kg, ip administered once daily for 2 weeks and measured 2 weeks after tumor removal with compound treatment (reference value: 193.7 +/- 6.50); type: functional; details: time 4 weeks
4T1 [34] = assay: Downregulation of phosphorylated JNK protein level at Thr183/185 residues in mouse 4T1 cells at 0.02 to 2.5 uM incubated for 24 hrs by Western blot analysis; type: functional, cell-based; details: dose 0.02-2.5 µM
MDA-MB-231 [35] = assay: Induction of apoptosis in human MDA-MB-231 cells assessed as necrotic cells at 0.5 uM by Annexin V-FITC staining based flow cytometric analysis (reference value: 7.98 %); type: functional

Q: With CC[C@H]1O[C@@]2(C)[C@H](OC(C)=O)[C@@]1(C)O[C@@H](/C=C/C=C/C=C/c1oc(=O)cc(OC)c1C)[C@@H]2OC(=O)CCC(=O)OC/C=C/COc1no[n+]([O-])c1S(=O)(=O)c1ccccc1 as the compound, how does the inhibition (MDA-MB-231 [1]) read?
A: The inhibition was “Active”.

Q: And the Activity [2]?
A: The Activity was “Non-Toxic”.

Q: And the Activity (MDA-MB-231 [3])?
A: The Activity was “Dose-Dependent Effect”.

Q: And the Activity (MDA-MB-231 [4])?
A: Its Activity is 42.67%.

Q: And the Activity (MDA-MB-231 [5])?
A: Its Activity is “Active”.

Q: What about the Activity (MDA-MB-231 [6]) of the same compound?
A: Its Activity is “Active”.

Q: And the Activity (MDA-MB-231 [7])?
A: Its Activity is 8.89%.

Q: What about the Activity (4T1 [8]) of the same compound?
A: The Activity was “Active”.

Q: What about the inhibition at 0.5 µM (4T1 [9]) of the same compound?
A: The inhibition at 0.5 µM was 62.8%.

Q: And the Activity (MDA-MB-231 [10])?
A: The Activity was “Active”.

Q: What about the inhibition at 0.5 µM (MDA-MB-231 [11]) of the same compound?
A: Its inhibition at 0.5 µM is 60.7%.

Q: And the Drug metabolism [12]?
A: The Drug metabolism was “Metabolite_Detected”.

Q: What about the Activity (MDA-MB-231 [13]) of the same compound?
A: The Activity was 12.97%.

Q: What about the Activity (MDA-MB-231 [14]) of the same compound?
A: Its Activity is 0.37%.

Q: And the Activity (MDA-MB-231 [15])?
A: The Activity was “Active”.

Q: And the inhibition (4T1 [16])?
A: Its inhibition is “Active”.

Q: And the Activity (MDA-MB-231 [17])?
A: Its Activity is “Dose-Dependent Effect”.

Q: And the Activity (MDA-MB-231 [18])?
A: The Activity was 86%.

Q: What about the viability at 0.5 µM (MDA-MB-231 [19]) of the same compound?
A: Its viability at 0.5 µM is 75.3%.

Q: And the IC50 (HCC1937)?
A: Its IC50 is 0.87 µM.

Q: And the Activity (MDA-MB-231 [20])?
A: The Activity was “Dose-Dependent Effect”.

Q: And the Activity (MDA-MB-231 [21])?
A: Its Activity is “Dose-Dependent Effect”.

Q: And the Activity (MDA-MB-231 [22])?
A: Its Activity is 91%.

Q: What about the Activity (MDA-MB-231 [23]) of the same compound?
A: The Activity was 4.87 µM.

Q: And the Activity (4T1 [24])?
A: The Activity was “Dose-Dependent Effect”.

Q: And the Activity (MDA-MB-231 [25])?
A: Its Activity is “inactive”.

Q: And the viability at 1 µM (MDA-MB-231 [26])?
A: The viability at 1 µM was 47%.

Q: What about the Activity (MDA-MB-231 [27]) of the same compound?
A: The Activity was “Active”.

Q: What about the Activity (MDA-MB-231 [28]) of the same compound?
A: The Activity was 16.23%.

Q: What about the selectivity ratio [29] of the same compound?
A: The selectivity ratio was greater than 79.

Q: And the Activity (MDA-MB-231 [30])?
A: The Activity was “inactive”.

Q: And the IC50 at 72 h [31]?
A: Its IC50 at 72 h is greater than 50 µM.

Q: What about the Activity (4T1 [32]) of the same compound?
A: The Activity was “Dose-Dependent Effect”.

Q: And the Activity (4T1 [33])?
A: The Activity was 64.5.

Q: And the Activity (4T1 [34])?
A: The Activity was “Active”.

Q: What about the Activity (MDA-MB-231 [35]) of the same compound?
A: The Activity was 0.44%.
